Consider three compounds from patent publication US7083667B2, “Colorant compound, ink, ink tank, recording unit, recording apparatus and recording process” (Canon Kabushiki Kaisha, priority 2004, dated 2006).

A short description of this data set: Determination of solubility in chloroform at room temperature. As to conditions: for Solubility in chloroform (in words): nonpolar solvent; for Solubility: in chloroform, room temperature. The data set is classed as physicochemical. The procedure:
Determination of Solubility
With respect to Colorant Compounds (5) to (16) obtained above, solubility in chloroform at room temperature was determined.

As to `Cc1cccc(C)c1N=c1ccc2c(-c3ccccc3S(=O)(=O)O)c3ccc(Nc4c(C)ccc(S(=O)(=O)[O-])c4C)cc3oc-2c1.[Na+]` [C.I. Acid Red 289, reference compound], the “Solubility in chloroform (in words)” value is on record as “not dissolved”.
Compound `CCOC(=O)c1ccccc1-c1c2cc/c(=N\c3c(C)cccc3C)cc-2oc2cc(Nc3c(C)cccc3C)ccc12.Cl` [Compound (5)] gave a Solubility of 10.7 % by mass.
Regarding `CCOC(=O)c1ccccc1-c1c2cc/c(=N\c3c(C)cccc3C)cc-2oc2cc(Nc3c(C)cccc3C)ccc12` [Compound (6)], the “Solubility in chloroform (in words)” value was “higher solubility” and the Solubility stood at 20.5 % by mass.
